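Dose response: 5 concentrations. Exposure: 48 h. Format: 96-well plates. Endpoint: linear interpolation; highest concentration if not reached. Abbreviation: GI50, concentration required for 50% inhibition of growth. TGI denotes the concentration required for complete inhibition of growth.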
Columns and labels:
Assay in all cases: inhibition of tumour cell growth, NCI panel, 48 h
[1] = test system: HCT-116 colon
[2] = test system: NCI-H23 lung
[3] = test system: UO-31 renal
[4] = test system: KM12 colon
[5] = test system: HOP-62 NSCLC
[6] = test system: K-562 leukemia
[7] = test system: NCI/ADR-RES ovarian
[8] = test system: SK-MEL-2 melanoma
[9] = test system: MCF7 breast
[10] = test system: NCI-H522 lung
[11] = test system: OVCAR-8 ovarian
[12] = test system: SK-MEL-5 melanoma
[13] = test system: SW-620 colon
[14] = test system: RXF 393 renal
[15] = test system: COLO 205 colon
[16] = test system: ACHN renal
[17] = test system: OVCAR-4 ovarian
[18] = test system: RPMI-8226 leukemia
[19] = test system: HCT-15 colon
[20] = test system: 786-0 renal
[21] = test system: SK-OV-3 ovarian
[22] = test system: SF-295 CNS
[23] = test system: TK-10 renal
[24] = test system: MOLT-4 leukemia
[25] = test system: MDA-MB-468 breast
[26] = test system: HOP-92 NSCLC
[27] = test system: A498 renal
[28] = test system: SK-MEL-28 melanoma
[29] = test system: SN12C renal
[30] = test system: PC-3 prostate
[31] = test system: UACC-62 melanoma
[32] = test system: M14 melanoma
[33] = test system: IGROV1 ovarian
[34] = test system: CCRF-CEM leukemia
[35] = test system: T-47D breast
[36] = test system: SR leukemia
[37] = test system: OVCAR-3 ovarian
[38] = test system: OVCAR-5 ovarian
[39] = test system: A549 NSCLC
[40] = test system: LOX IMVI melanoma
[41] = test system: HS 578T breast
[42] = test system: SF-268 CNS
[43] = test system: SF-539 CNS
[44] = test system: HT29 colon
[45] = test system: NCI-H226 lung
[46] = test system: EKVX NSCLC
[47] = test system: CAKI-1 renal
[48] = test system: MALME-3M melanoma
[49] = test system: NCI-H460 lung
[50] = test system: MDA-MB-231 breast
[51] = test system: HCC-2998 colon
[52] = test system: SNB-19 CNS
[53] = test system: U251 CNS
[54] = test system: HL-60(TB) leukemia
[55] = test system: DU-145 prostate
[56] = test system: MDA-MB-435
[57] = test system: UACC-257 melanoma
[58] = test system: BT-549 breast

Structure (SMILES): COc1ccc2[nH]cc(-c3nc(N)nnc3-c3cn(C)c4ncc(Br)cc34)c2c1
- GI50 [1]: 0.373 µM
- TGI [1]: 13.8 µM
- GI50 [2]: 0.461 µM
- TGI [2]: 21.7 µM
- GI50 [3]: 0.717 µM
- TGI [3]: 20.3 µM
- GI50 [4]: 0.241 µM
- TGI [4]: 17.5 µM
- GI50 [5]: 0.547 µM
- TGI [5]: > 76.9 µM
- GI50 [6]: 0.085 µM
- TGI [6]: > 100 µM
- GI50 [7]: 1.45 µM
- TGI [7]: 11.2 µM
- GI50 [8]: 0.335 µM
- TGI [8]: 15.4 µM
- GI50 [9]: 0.0756 µM
- TGI [9]: 25.3 µM
- GI50 [10]: 0.0266 µM
- TGI [10]: 0.12 µM
- GI50 [11]: 0.851 µM
- TGI [11]: 22.9 µM
- GI50 [12]: 0.233 µM
- TGI [12]: 4.05 µM
- GI50 [13]: 0.304 µM
- TGI [13]: > 62.4 µM
- GI50 [14]: 0.244 µM
- TGI [14]: 3.89 µM
- GI50 [15]: 0.305 µM
- TGI [15]: 1.18 µM
- GI50 [16]: 0.642 µM
- TGI [16]: 30.5 µM
- GI50 [17]: 1.44 µM
- TGI [17]: > 95.5 µM
- GI50 [18]: 0.43 µM
- TGI [18]: > 40.8 µM
- GI50 [19]: 0.354 µM
- TGI [19]: 21.4 µM
- GI50 [20]: 0.545 µM
- TGI [20]: 22.2 µM
- GI50 [21]: 0.482 µM
- TGI [21]: 48.1 µM
- GI50 [22]: 0.23 µM
- TGI [22]: 10.3 µM
- GI50 [23]: 13.1 µM
- TGI [23]: 42.4 µM
- GI50 [24]: 0.524 µM
- TGI [24]: > 76.7 µM
- GI50 [25]: 0.0301 µM
- TGI [25]: 0.631 µM
- GI50 [26]: 0.572 µM
- TGI [26]: 14.3 µM
- GI50 [27]: 12.6 µM
- TGI [27]: 48.1 µM
- GI50 [28]: 0.966 µM
- TGI [28]: 34.4 µM
- GI50 [29]: 0.494 µM
- TGI [29]: 26.4 µM
- GI50 [30]: 0.311 µM
- TGI [30]: > 60.1 µM
- GI50 [31]: 0.184 µM
- TGI [31]: 13.3 µM
- GI50 [32]: 0.292 µM
- TGI [32]: 30.3 µM
- GI50 [33]: 0.923 µM
- TGI [33]: 25 µM
- GI50 [34]: 0.379 µM
- TGI [34]: > 84.3 µM
- GI50 [35]: 0.192 µM
- TGI [35]: 97.2 µM
- GI50 [36]: 0.0693 µM
- TGI [36]: > 100 µM
- GI50 [37]: 0.25 µM
- TGI [37]: 2.66 µM
- GI50 [38]: 0.568 µM
- TGI [38]: > 100 µM
- GI50 [39]: 0.769 µM
- TGI [39]: > 95.3 µM
- GI50 [40]: 0.484 µM
- TGI [40]: 20.1 µM
- GI50 [41]: 0.319 µM
- TGI [41]: > 78.3 µM
- GI50 [42]: 1.58 µM
- TGI [42]: 29.6 µM
- GI50 [43]: 0.255 µM
- TGI [43]: 0.844 µM
- GI50 [44]: 0.317 µM
- TGI [44]: 2.55 µM
- GI50 [45]: 0.676 µM
- TGI [45]: 9.15 µM
- GI50 [46]: 0.864 µM
- TGI [46]: > 72.8 µM
- GI50 [47]: 0.342 µM
- TGI [47]: > 50.8 µM
- GI50 [48]: 0.335 µM
- TGI [48]: 23 µM
- GI50 [49]: 0.382 µM
- TGI [49]: 18 µM
- GI50 [50]: 0.882 µM
- TGI [50]: 48.6 µM
- GI50 [51]: 0.91 µM
- TGI [51]: 12.9 µM
- GI50 [52]: 0.738 µM
- TGI [52]: > 100 µM
- GI50 [53]: 0.491 µM
- TGI [53]: 38.6 µM
- GI50 [54]: 0.168 µM
- TGI [54]: 3.91 µM
- GI50 [55]: 0.446 µM
- TGI [55]: > 49.7 µM
- GI50 [56]: 0.0379 µM
- TGI [56]: 0.205 µM
- GI50 [57]: 0.724 µM
- TGI [57]: 27.8 µM
- GI50 [58]: 0.469 µM
- TGI [58]: 7.26 µM
